Paper PMC10326435, “Antiprotozoal activity of natural products from Nigerien plants used in folk medicine” (Frontiers in Pharmacology, 2023)
Like-named read-outs stand apart in the source and are kept apart here.

Tests used:
[1] = test system: P. falciparum (NF54, intraerythrocytic); experiment: in vitro activity on P. falciparum, serial dilution assay; format: cell-based, Plasmodium falciparum; details: for IC50: 72 h exposure, means of two independent assays ± deviation from the mean, read-out: IC50 P. falciparum; for Selectivity index (SI) P. falciparum: SI = IC50 cytotoxicity (L6)/IC50 in P. falciparum
Experimental: (§1) The in vitro activity was assessed on T. b. rhodesiense (STIB900, trypomastigotes), T. cruzi (Tulahuen C2C4, intracellular amastigotes), L. donovani (MHOM-ET-67/L82, axenically grown amastigotes), P. falciparum (NF54, intraerythrocytic), and L6 cells (ATCC, CRL-1458™, rat skeletal myoblasts) as previously described ([Bernal et al., 2020]). The activities were determined in serial dilution assays with 72 h compound exposure, respectively 96 h for intracellular T. cruzi. Results are expressed in µg/mL for extracts and in µM for pure compounds. The IC50 values were determined for the compounds only when they were <50 µM.

[2] = test system: L. donovani (MHOM-ET-67/L82, axenically grown amastigotes); experiment: in vitro activity on L. donovani, serial dilution assay; format: cell-based, Leishmania donovani; details: for IC50: axenic amastigotes, 72 h exposure, means of two independent assays ± deviation from the mean, read-out: IC50 L. donovani; for Selectivity index (SI) L. donovani: SI = IC50 cytotoxicity (L6)/IC50 in L. donovani
Experimental: as §1

cytotoxicity in L6 cells = format: cell-based, rat; details: rat
Experimental: as §1

[3] = test system: T. b. rhodesiense (STIB900, trypomastigotes); experiment: in vitro activity on T. b. rhodesiense, serial dilution assay; format: cell-based, Trypanosoma brucei rhodesiense; details: for IC50: 72 h exposure, means of two independent assays ± deviation from the mean, read-out: IC50 T. b. rhodesiense; for Selectivity index (SI) T. b. rhodesiense: SI = IC50 cytotoxicity (L6)/IC50 in T. b. rhodesiense
Experimental: as §1

[4] = test system: T. cruzi (Tulahuen C2C4, intracellular amastigotes); experiment: in vitro activity on T. cruzi, serial dilution assay; format: cell-based, Trypanosoma cruzi; details: for IC50: 96 h exposure, means of two independent assays ± deviation from the mean, read-out: IC50 T. cruzi; for Selectivity index (SI) T. cruzi: SI = IC50 cytotoxicity (L6)/IC50 in T. cruzi
Experimental: as §1

P. falciparum = details: cited from earlier work
[5] = test system: intracellular L. donovani amastigotes in mouse macrophages; experiment: intracellular L. donovani amastigotes in mouse macrophages; format: cell-based, Leishmania donovani; details: not active, read-out: IC50 against intracellular L. donovani amastigotes
Text: The antiparasitic activity of myricitrin (1) and quercitrin (2) was already described in the literature ([Muzitano et al., 2006]; [Larit et al., 2021]), and therefore it was not evaluated in the present study. Compound 3 was the only compound evaluated from the extract of C. sieberiana and was compared to the activity of miltefosine due to structural similarities. […] Among the cyclopeptide alkaloids isolated from the DCM extract of Z. mauritiana (4, 5, 7–12), a methoxy group at C-13 (10–12) seems to be favorable for the antiplasmodial activity. In addition, the indole group at C-29 present in compounds 9 and 12 seems to be important for the activity against T. b. rhodesiense. […] This is the first report on the antileishmanial and antitrypanosomal activities of these compounds. […] This is in agreement with our study. Among the triterpene derivatives isolated from the DCM root bark extract of Z. mauritiana (6, 13–19), betulinic acid (19), an already well-studied compound, was not tested in this work. […] The triterpenoids tested in the present work (Table 3) were mainly active against L. donovani and presented a good selectivity index. The substitution with an epoxy group in compound 13 compared to compound 6 enhanced the activity toward L. donovani and P. falciparum but not against T. cruzi. […]

[6] = test system: L6 cells (ATCC, CRL-1458, rat skeletal myoblasts); experiment: cytotoxicity in L6 cells; format: cell-based; details: rat, 72 h
Experimental: as §1

T. cruzi = details: read-out: IC50 against T. cruzi, cited from earlier work
T. b. rhodesiense = details: previously reported; ref Cretton et al., 2015; read-out: IC50 against T. b. rhodesiense; cited from earlier work
Leishmania spp. = test system: Leishmania spp.; parameters: method as in Rocha et al., 2022; details: no significant activity; ref Rocha et al., 2022; read-out: IC50 against Leishmania spp.; cited from earlier work
L. amazonensis = test system: L. amazonensis; parameters: method as in Costa et al., 2018; details: ref Costa et al., 2018; read-out: IC50 against L. amazonensis; cited from earlier work
[7] = Plasmodium falciparum, NF54, 72 h
[8] = Trypanosoma cruzi, TULAHUEN, 96 h
[9] = already reported, ref Suksamrarn et al., 2006, Panseeta et al., 2011, Tuenter et al., 2017, read-out: antiplasmodial activity IC50
[10] = L6 cells (rat skeletal myoblasts, ATCC CRL-1458), rat skeletal myoblast (L6 cells), 72 h exposure, means of two independent assays ± deviation from the mean, read-out: IC50 Cytotoxicity

CN[C@H](C)C(=O)N[C@H](C(=O)N1CC[C@@H]2Oc3ccc(OC)c(c3)/C=C\NC(=O)[C@H](Cc3ccccc3)NC(=O)[C@H]21)C(C)C [Compound 11, N-demethylamphibine H]
IC50 [1, 7]: 14.7 ± 4.2 µM
Selectivity index (SI) P. falciparum [1]: > 5.4
IC50 ([2]; Leishmania donovani, 72 h): 44.8 ± 3.4 µM
Selectivity index (SI) L. donovani [2]: > 1.5
IC50 at 72 h (cytotoxicity in L6 cells; IC50 Cytotoxicity): > 50 µM
IC50 ([3]; Trypanosoma brucei, 72 h): > 50 µM
IC50 [4, 8]: > 50 µM
IC50 (P. falciparum; [9]): 3.6 µM

CCC(C)[C@@H]1NC(=O)[C@@H]2[C@H](CCN2C(=O)[C@H](Cc2c[nH]c3ccccc23)NC(=O)[C@H](CC(C)C)NC)Oc2ccc(OC)c(c2)/C=C\NC1=O (some centres unmarked) [Compound 12, mauritine M]
IC50 [1, 7]: 2.6 ± 0.2 µM
Selectivity index (SI) P. falciparum [1]: 12.2
IC50 ([2]; Leishmania donovani, 72 h): > 50 µM
IC50 at 72 h (cytotoxicity in L6 cells; IC50 Cytotoxicity): 31.8 ± 7.6 µM
Selectivity index (SI) T. b. rhodesiense [3]: 5.0
IC50 ([3]; Trypanosoma brucei, 72 h): 6.4 ± 2 µM
Selectivity index (SI) T. cruzi [4]: 2.0
IC50 [4, 8]: 15.7 ± 1.1 µM
IC50 (P. falciparum; [9]): 3.7 µM

C=C(C)C1CCC2(C(=O)O)CCC3(C)C(CCC4C5(C)C(C(=O)O)C(OC(=O)c6ccccc6)C(C)(C)C5CCC43C)C12 [Compound 15, (1R, 3S)-3-O-benzoyl ceanothic acid]
IC50 [1, 7]: 10.1 ± 0.6 µM
Selectivity index (SI) P. falciparum [1]: 1.6
IC50 ([5]; Leishmania donovani, Macrophage): > 50 µM
Selectivity index (SI) L. donovani [2]: 32.8
IC50 [2]: 0.5 ± 0.2 µM
IC50 at 72 h (cytotoxicity in L6 cells; IC50 Cytotoxicity): 16.4 ± 5.8 µM
IC50 [3]: 11.7 ± 1 µM
Selectivity index (SI) T. b. rhodesiense [3]: 1.4
Selectivity index (SI) T. cruzi [4]: 0.4
IC50 [4, 8]: 43.8 ± 8.4 µM

C=C(C)C1CCC2(C(=O)O)CCC3(C)C(CCC4C5(C)C(C(=O)O)C(OC(=O)c6ccccc6)C(C)(C)C5CCC43C)C12 [Compound 16, (1S, 3S)-3-O-benzoyl ceanothic acid]
IC50 [1]: 15.3 ± 1.5 µM
Selectivity index (SI) P. falciparum [1]: 2.1
IC50 [5]: > 50 µM
Selectivity index (SI) L. donovani [2]: 17.9
IC50 [2]: 1.8 ± 0.7 µM
IC50 [6]: 32.3 ± 5.1 µM
IC50 [3]: 30.6 ± 2.8 µM
Selectivity index (SI) T. b. rhodesiense [3]: 1.1
IC50 [4]: > 50 µM

C=C(C)[C@@H]1CC[C@]2(C(=O)O)CC[C@]3(C)[C@H](CC[C@@H]4[C@@]5(C)CC[C@H](O)C(C)(C)[C@@H]5CC[C@]43C)[C@@H]12 [Compound 19, betulinic acid]
IC50 (T. cruzi; no significant activity, ref Rocha et al., 2022): > 25 µM
IC50 (T. b. rhodesiense): 4.2 µM
IC50 (Leishmania spp.): > 25 µM
IC50 (P. falciparum; previously reported, ref Cretton et al., 2015, read-out: IC50 against P. falciparum): 19 µM

CC(C)=CCC1=C(O)C(=O)c2c(O)ccc(O)c2C1=O [Compound 20]
IC50 [1, 7]: 45 ± 4.6 µM
Selectivity index (SI) P. falciparum [1]: 0.3
IC50 ([2]; Leishmania donovani, 72 h): 1.9 ± 0.4 µM
Selectivity index (SI) L. donovani [2]: 7.4
IC50 at 72 h (cytotoxicity in L6 cells; [10]): 14 ± 0.4 µM
Selectivity index (SI) T. b. rhodesiense [3]: 2.0
IC50 ([3]; Trypanosoma brucei, 72 h): 6.9 ± 1.3 µM
Selectivity index (SI) T. cruzi [4]: 0.5
IC50 [4, 8]: 27.4 ± 1.3 µM
IC50 (P. falciparum; previously evaluated, ref Kopa et al., 2014, read-out: antiplasmodial activity IC50): 3 µM

CC1(C)C=CC2=C(O1)C(=O)c1c(O)ccc(O[C@@H]3O[C@H](CO)[C@@H](O)[C@H](O)[C@H]3O)c1C2=O [Compound 29]
IC50 [1, 7]: > 50 µM
IC50 (T. cruzi; ref Costa et al., 2018): 7.6 µM
IC50 ([2]; Leishmania donovani, 72 h): 11.4 ± 2.3 µM
Selectivity index (SI) L. donovani [2]: 3.5
IC50 at 72 h (cytotoxicity in L6 cells; [10]): 40.3 ± 0.7 µM
Selectivity index (SI) T. b. rhodesiense [3]: 3.2
IC50 ([3]; Trypanosoma brucei, 72 h): 12.5 ± 1.6 µM
IC50 [4, 8]: > 50 µM
IC50 (L. amazonensis): 12.6 µM
